Experiment [1] deals with NCI-H69 cells. Briefly: FACS-based (DRAQ7) viability assay. The class given is cell-based, human. The procedure:
[…] Etoposide, SB203580 and MK2.III were all dissolved in 0.2% of DMSO before use. Cells treated only with the carrier molecule DMSO (0.2%) served as a control.
Viability analysis was performed by staining with the […], stoichiometric DNA stain DRAQ7 (640 or 633 nm excitation and 670 nm emission; Biostatus Limited). After 48-h treatment with DNA damaging agents and/or inhibitors, cells were washed once with RPMI 1640 and resuspended in 1 ml culture media at a concentration of less than 5 × 10^5/ ml. Cells were stained with 20 µM of DRAQ7 and incubated at 37 °C for 10 min before FACS Calibur cytometer analysis. Fluorescent signals were amplified using linear mode. Cell cycle analysis was performed either by staining DRAQ7 or Propidium Iodide (PI). Cells were stained with 20 µM of DRAQ7 and incubated at 37 °C for 10 min before analysis on a FACSCalibur cytometer. Propidium Iodide (PI, excited with 488 nm laser, collected with 585/52 bandpass filter) was used in the large-scale experiments. Samples were then fixed with 70% EtOH following the viability assay and stored at 4 °C overnight before the experiment. After fixation with 70% EtOH (added drop-wise) for 24 h, samples were centrifuged into the pellet and then washed twice with ice-cold PBS. The supernatant was discarded and pellets were resuspended in 100 µl of RNase A (100 µg/ml) and 400 µl of PI ([…] in PBS). Analysis of flow cytometry data was performed using FlowJo software. Untreated, unstained cells were used as a negative control to determine the location of viable cells on the dot plots. Events below a threshold size were interpreted as cellular debris and were removed from the dataset, leaving a whole cell population.

The subject of experiment [2] is NCI-H69 cells. Kind of experiment: FACS-based cell cycle analysis. Set-up: species or system human. To be noted: single treatment, increasing dose. On the procedure: The cells were grown in 12 well plates (Scientific Laboratory Supplies Limited, UK) in RPMI 1640 (Gibco, UK) supplemented with 10% FBS (Autogen Bioclear, UK) and 10,000 U/ml penicillin and 10 mg/ml streptomycin (Sigma, UK) at 37 °C under 5% CO2 and treated with 10, 20, 50, 100 and 150 µM of DNA damaging agent etoposide (VP-16) (Sigma, UK) in the presence or absence of p38MAPK inhibitor SB203580 (Tocris Chemical Co., UK) or MK2 inhibitor MK2.III (Merck, UK) in concentrations of 0, 0.3125, 0.625, 1.25, 2.5, and 5.0 µM. Etoposide, SB203580 and MK2.III were all dissolved in 0.2% of DMSO before use. Cells treated only with the carrier molecule DMSO (0.2%) served as a control.
Viability analysis was performed by staining with the […], stoichiometric DNA stain DRAQ7 (640 or 633 nm excitation and 670 nm emission; Biostatus Limited). After 48-h treatment with DNA damaging agents and/or inhibitors, cells were washed once with RPMI 1640 and resuspended in 1 ml culture media at a concentration of less than 5 × 10^5/ ml. Cells were stained with 20 µM of DRAQ7 and incubated at 37 °C for 10 min before FACS Calibur cytometer analysis. Fluorescent signals were amplified using linear mode. Cell cycle analysis was performed either by staining DRAQ7 or Propidium Iodide (PI). Cells were stained with 20 µM of DRAQ7 and incubated at 37 °C for 10 min before analysis on a FACSCalibur cytometer. […]

Experiment [3] has as its system MDA-MB-231 breast cancer cell line. Briefly: CCK8 cell viability assay, MDA-MB-231. Type of experiment: cell-based, human. To be noted: MK2.III 1 µM or etoposide 150 µM alone, 24 h. On the procedure: (§1) To assess the effect of MK2.III kinase inhibitor and the etoposide (VP-16) on the viability of different cancer cell lines, cells were seeded in 96-well plates in a concentration of 5000 cells per well. After 12 h, etoposide and 1 μM MK2.III diluted in culture media were added into the wells for 24 h. NCI-H69 cells were exposed to a series of etoposide concentrations from 20 μM to 150 μM. MDA-MB-231, SW 620, and SW 480 cell lines were incubated with 150 μM etoposide. After treatment, 10 μL of the CCK-8 reagent (96992, Sigma) was added to each well for 1 h followed by optical density measurement at 450 nm using hybrid plate reader Synergy H1.
(In general: Tetrazolium assays rely on reduction of a dye to a coloured formazan, in cell work by metabolically active cells.)

Experiment [4] relates to SW480 colorectal cancer cell line. Kind of experiment: CCK8 cell viability assay, SW480. The class given is cell-based, human. To be noted: etoposide 150 µM alone, 24 h. The procedure:
as §1

Experiment [5] relates to SW620 colorectal cancer cell line. Briefly: CCK8 cell viability assay, SW620. The class given is cell-based, human. To be noted: MK2.III 1 µM or etoposide 150 µM alone, 24 h. The procedure:
as §1

For experiment [6], the system named is NCI-H69 cells. Kind of experiment: CCK8-based cell viability assay, NCI-H69. Set-up: species or system human. To be noted: 24 h. On the procedure:
as §1

Experiment [7] concerns NCI-H69 xenograft. Briefly: Tumor (xenograft) suppression with combination chemotherapy in SCID mice. Type of experiment: in vivo. To be noted: for Tumor Volume (mm^3) median (25th and 75th quartile): VP-16 12 mg/kg. The procedure:
To establish the most suitable xenograft model for the main experiment we used two mouse lines – BALB/c Nude and SCID (both female, 6 weeks, n = 20, Charles River). Both mouse lines were injected with NCI-H69 cancer cells (xenograft). Before injection, cells were grown at 37 °C in RPMI-1640 medium containing 10% FBS and pen/strep. Cells were mixed with Matrigel (1:1) and depending on the group 5 × 10^6 or 10 × 10^6 cells were injected into a mouse subcutaneously along the spine to the level of the left scapula. Mice were divided into 4 groups: (1) 5 × 10^6 NCI-H69 SCID (n = 5); (2) 5 × 10^6 NCI-H69 Nude (n = 5); (3) 10 × 10^6 NCI-H69 SCID (n = 5); and (4) 10 × 10^6 NCI-H69 Nude (n = 5).
The main experiment (injection of the drugs) took place after the tumor growth was established. The tumor growth in mice following the injection of cells was monitored twice a week and upon reaching the volume of ~ 100 mm^3, animals were randomized into 5 groups (12 female SCID mice in each group). The drug treatment was performed as follows: the first group was a control and received a placebo in the form of PBS (tumor volume 95 ± 38 mm^3); the second group received 12 mg/kg of Etoposide (tumor volume 101 ± 51 mm^3); the third group was injected with 4 mg/kg of MK2.III (tumor volume 105 ± 44 mm^3); fourth and fifth groups were injected with 12 mg/kg of Etoposide and 4 mg/kg or 2 mg/kg of MK2.III (tumor volumes 112 ± 57 and 107 ± 49 mm^3 respectively). Drugs were injected intraperitoneally daily. Etoposide was injected 3 days after the randomization into groups and MK2.III was administered for 28 days. Tumor growth/suppression was measured using calipers every 3–4 days for the duration of the 28-day treatment and the tumor volume was calculated as follows:[…],
Antitumor properties of drugs in the test group were determined based on the slowing of the tumor growth or tumor volume compared with the control group receiving PBS. Animal welfare was monitored throughout the study period to ensure that animals in distress were euthanized by carbon dioxide asphyxiation. All the animals were also euthanized by carbon dioxide asphyxiation following the completion of the study.
Descriptive statistics were used to summarize the tumor size and data reported as medians and 25th and 75th quartiles. Wilcoxon sum rank test was used to investigate the effects of the treatments on tumor growth. […] Statistical analyses were performed on the SigmaPlot 11.0 software.

Read-outs that look alike come from different tables or passages of the source.

For the molecule `C[S+]([O-])c1ccc(-c2nc(-c3ccncc3)c(-c3ccc(F)cc3)[nH]2)cc1` (stereo not shown) [SB203580], the viability at 0.321 µM in experiment [1] (Homo sapiens, NCI-H69, Table 1 dose response, agent alone 0.321 µM (lowest dose), 48 h, read-out: Viable cells (%)) was found to be 89%. The viability at 0.626 µM in experiment [1] (Homo sapiens, NCI-H69, Table 1 dose response, agent alone 0.626 µM, 48 h, read-out: Viable cells (%)) was 89.8%. For the same molecule, the viability at 1.25 µM in experiment [1] (Homo sapiens, NCI-H69, Table 1 dose response, agent alone 1.25 µM, 48 h, read-out: Viable cells (%)) was determined as 89%. For the same molecule, the viability at 2.5 µM in experiment [1] (Homo sapiens, NCI-H69, Table 1 dose response, agent alone 2.5 µM, 48 h, read-out: Viable cells (%)) was found to be 89.4%. Further, the viability at 5 µM in experiment [1] (Homo sapiens, NCI-H69, Table 1 dose response, agent alone 5.0 µM (highest dose), 48 h, read-out: Viable cells (%)) is 85.1%. Further, the “Effect on NCI-H69 cell viability compared to the DMSO control” value in experiment [1] (inhibitor alone at 2.5 µM) is reported as “did not affect”.

For `COc1cc([C@@H]2c3cc4c(cc3[C@@H](O[C@@H]3O[C@@H]5CO[C@@H](C)O[C@H]5[C@H](O)[C@H]3O)[C@H]3COC(=O)[C@H]23)OCO4)cc(OC)c1O` [VP-16 (Etoposide), etoposide], the “Effect on cell cycle profile, single agent” value in experiment [2] is “G2 cell cycle arrest”. The viability at 10 µM in experiment [1] (Homo sapiens, NCI-H69, Table 1 dose response, agent alone 10 µM, 48 h, read-out: Viable cells (%)) came to 75.7%. Moreover, the viability at 20 µM stood at 76.8% in experiment [1] (Homo sapiens, NCI-H69, Table 1 dose response, agent alone 20 µM, 48 h, read-out: Viable cells (%)) and 57.3% in experiment [1] (Homo sapiens, NCI-H69, Table 2, VP-16 20 µM, alone or with MK2.III 1.0 µM or SB203580 2.5 µM, read-out: Viable cells (%)). The viability at 50 µM was found to be 65.2% in experiment [1] (Homo sapiens, NCI-H69, Table 1 dose response, agent alone 50 µM, 48 h, read-out: Viable cells (%)) and 46.4% in experiment [1] (Homo sapiens, NCI-H69, Table 2, VP-16 50 µM, alone or with MK2.III 1.0 µM or SB203580 2.5 µM, read-out: Viable cells (%)). In addition, the viability at 100 µM was 61.3% in experiment [1] (Homo sapiens, NCI-H69, Table 1 dose response, agent alone 100 µM, 48 h, read-out: Viable cells (%)) and 45.4% in experiment [1] (Homo sapiens, NCI-H69, Table 2, VP-16 100 µM, alone or with MK2.III 1.0 µM or SB203580 2.5 µM, read-out: Viable cells (%)). The viability at 150 µM came to 55.4% in experiment [1] (Homo sapiens, NCI-H69, Table 1 dose response, agent alone 150 µM, 48 h, read-out: Viable cells (%)) and 37.5% in experiment [1] (Homo sapiens, NCI-H69, Table 2, VP-16 150 µM, alone or with MK2.III 1.0 µM or SB203580 2.5 µM, read-out: Viable cells (%)). In addition, the “Effect of single agent on viability” value in experiment [3] was “did not affect the viability”. The “Decrease of viability by single agent” value in experiment [4] worked out at 65%; in experiment [5], 50%. For the same molecule, the figures for the “Percentage of surviving cells” value in experiment [6] (etoposide 20 µM) and in experiment [6] (etoposide 150 µM) were 72% and 36%, respectively. For the same molecule, the “Difference in tumor size versus control” value in experiment [7] (at any checkpoint, etoposide 12 mg/kg, MK2.III 4 mg/kg, or etoposide + MK2.III 2 mg/kg) was “no significant difference”. For the same molecule, the “Tumor Volume (mm^3) median (25th and 75th quartile)” value in experiment [7] (day 11 upon treatment, MK2.III 4 mg/kg IP daily) is given as 556(360;839) mm^3; in experiment [7] (day 18 upon treatment, MK2.III 4 mg/kg IP daily), 1219 (995;1387)^*** mm^3; in experiment [7] (day -1 upon treatment (baseline), MK2.III 4 mg/kg IP), 93.5 (66;125) mm^3.

The values above are taken from paper PMC10517462, “Small molecule targeting of the p38/Mk2 stress signaling pathways to improve cancer treatment” (BMC Cancer, 2023).
